This note sets out measurements from patent EP3827825A1, “USE OF 3, 4-DIARYLPYRAZOLES AS ANTIBACTERIAL AGENTS” (Wageningen Universiteit, priority 2019, dated 2021).

Converted amounts (≈) assume the structure as drawn. Read-outs that look alike come from different tables or passages of the source. Some results are limits rather than exact numbers.

For one assay, the system named is S. aureus Newman. Put plainly: Minimal inhibitory concentration (MIC), double-dilution in broth, OD600. The assay is classed as cell-based, Staphylococcus aureus Newman. As to conditions: unit assumed. In outline: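 Twofold broth dilution series of compound from a DMSO stock, against S. aureus Newman from a 1:100-diluted overnight culture. Plates were incubated for 24 hours, then read at OD600. The MIC is the lowest concentration showing no growth.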

Another assay concerns S. suis. The description is as above. The assay is classed as cell-based, Streptococcus suis. The note with it: unit assumed. In outline:
(§1)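 MICs came from two-fold broth dilutions from 5 mg/mL DMSO stocks, with 100-fold-diluted overnight cultures incubated overnight/24 h; growth was read at OD600 and the MIC taken as the lowest concentration without growth. For M. marinum, Middlebrook 7H9 broth was used with 3 days at 30 °C.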

The subject of another assay is P. multocida. The assay is described as above. As to conditions: unit assumed. The format is cell-based, Pasteurella multocida. Summed up:
as §1

The test system of the next assay is M. marinum. Put plainly: Minimal inhibitory concentration (MIC), Middlebrook 7H9 broth, 3 days at 30 °C. The assay is classed as cell-based, Mycobacterium marinum. As to conditions: unit assumed. Summed up: as §1
The test system of the next assay is E. coli JW5503. The format is cell-based, Escherichia coli. As to conditions: unit assumed. Summed up: as §1
Another assay relates to E. faecium Van A. Put plainly: Minimal inhibitory concentration (MIC), double-dilution in broth, OD600. The assay is classed as cell-based, Enterococcus faecium. The note with it: unit assumed. Summed up: as §1
The next assay relates to HEK293. Put plainly: Cell toxicity, Alamar blue assay, 24 hours exposure. As to conditions: for IC50: Homo sapiens. The assay is classed as cell-based. In outline: (§2)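 Alamar blue (resazurin→resorufin) viability in NRK-52E and HEK293 cells after 24 h exposure to HKI compounds at 0.39–500 µg/mL in serum-free medium. Compounds were removed, dye added for 45 min, fluorescence read. Mostly single measurements.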
(Alamar Blue is a resazurin reagent that responds to reducing activity.)

The next assay deals with NRK-52E. The assay is described as above. The format is cell-based. As to conditions: for IC50: Rattus norvegicus, read-out: IC50 NRK-52E (50 mg/mL stock). Summed up: as §2
[1] abbreviates: HEK293, read-out: IC50 HEK293 (5 mg/mL stock).
Setting [2] is: HEK293, read-out: IC50 HEK293 (50 mg/mL stock).

In turn, `COc1ccc(-c2[nH]nc(C(F)(F)F)c2-c2ccc(Br)cc2)c(O)c1` [May-23, 2-[4-(4-bromophenyl)-5-(trifluoromethyl)-1∼{H}-pyrazol-3-yl]-5-methoxy-phenol] gave an MIC S. aureus Newman against S. aureus Newman of 3.13 µg/mL (≈ 7.58 µM). The molecule further showed an MIC S. suis against S. suis of 6.25 µg/mL (≈ 15.1 µM). The MIC P. multocida with P. multocida was 50 µg/mL (≈ 121 µM). For the same molecule, in the assay with M. marinum, the MIC M. marinum is > 50 µg/mL. This molecule also came in with an MIC E. coli JW5503 against E. coli JW5503 of 3.13 µg/mL (≈ 7.58 µM). This molecule also had an MIC E. faecium Van A against E. faecium Van A of 3.13 µg/mL (≈ 7.58 µM). The IC50 is 8.38 µg/mL (≈ 20.3 µM) in the assay on HEK293 (setting [1]), 9 µg/mL (≈ 21.8 µM) with HEK293 (setting [2]) and ~2.81 µg/mL (≈ 6.81 µM) in the assay with NRK-52E.
In the assay with S. aureus Newman, `COc1ccc(-c2[nH]nc(C)c2-c2ccc(Br)cc2)c(O)c1` [May-4, 2-[4-(4-bromophenyl)-5-methyl-1∼{H}-pyrazol-3-yl]-5-methoxy-phenol] had an MIC S. aureus Newman of 6.25 µg/mL (≈ 17.4 µM). In addition, the MIC S. suis with S. suis was determined as 6.25 µg/mL (≈ 17.4 µM). Moreover, the MIC P. multocida in the assay with P. multocida was 12.5 µg/mL (≈ 34.8 µM). This molecule also gave an MIC M. marinum against M. marinum of 25 µg/mL (≈ 69.6 µM). In addition, the MIC E. coli JW5503 in the assay on E. coli JW5503 amounted to 3.13 µg/mL (≈ 8.71 µM). The molecule further showed an MIC E. faecium Van A against E. faecium Van A of 12.5 µg/mL (≈ 34.8 µM). The IC50 in the assay with HEK293 (setting [1]) is 8.96 µg/mL (≈ 24.9 µM); in the assay on NRK-52E, ~83.7 µg/mL (≈ 233 µM).
As for `C=C(C)COc1ccc(-c2[nH]nc(C(F)(F)F)c2-c2ccc(Cl)cc2)c(O)c1` [Sep-29, 2-[4-(4-chlorophenyl)-5-(trifluoromethyl)-1∼{H}-pyrazol-3-yl]-5-(2-methylallyloxy)phenol], the MIC S. aureus Newman against S. aureus Newman is 3.13 µg/mL (≈ 7.66 µM). In the assay on S. suis, the MIC S. suis came out at 12.5 µg/mL (≈ 30.6 µM). The MIC P. multocida in the assay with P. multocida was > 50 µg/mL. In addition, the MIC M. marinum with M. marinum is > 50 µg/mL. Also, the MIC E. coli JW5503 with E. coli JW5503 amounted to 12.5 µg/mL (≈ 30.6 µM). For the same molecule, in the assay on E. faecium Van A, the MIC E. faecium Van A is 6.25 µg/mL (≈ 15.3 µM). The IC50 turned out to be 16.4 µg/mL (≈ 40.1 µM) with HEK293 (setting [1]) and 19.9 µg/mL (≈ 48.7 µM) in the assay on NRK-52E.
Molecule `CCOc1ccc(-c2[nH]nc(C(F)(F)F)c2-c2ccc(Br)cc2)c(O)c1` [May-6, 2-[4-(4-bromophenyl)-5-(trifluoromethyl)-1∼{H}-pyrazol-3-yl]-5-ethoxy-phenol] showed an MIC S. aureus Newman in the assay with S. aureus Newman of 1.56 µg/mL (≈ 3.65 µM). The molecule also yielded an MIC S. suis in the assay on S. suis of 3.13 µg/mL (≈ 7.33 µM). In addition, in the assay with P. multocida, the MIC P. multocida is > 50 µg/mL. In the assay on M. marinum, this molecule had an MIC M. marinum of 50 µg/mL (≈ 117 µM). Moreover, the MIC E. coli JW5503 in the assay on E. coli JW5503 was determined as 3.13 µg/mL (≈ 7.33 µM). In addition, in the assay on E. faecium Van A, the MIC E. faecium Van A came out at 3.13 µg/mL (≈ 7.33 µM). For the same molecule, the figures for the IC50 in the assay on HEK293 (setting [1]) and with NRK-52E were 4.53 µg/mL (≈ 10.6 µM) and ~563 µg/mL (≈ 1320 µM), respectively.
As to `Oc1cc(OCc2ccc(Br)cc2)ccc1-c1n[nH]c(C(F)(F)F)c1-c1ccc(Cl)cc1` [May-18, 5-(4-bromobenzyl)oxy-2-[4-(4-chlorophenyl)-5-(trifluoromethyl)-1∼{H}-pyrazol-3-yl]phenol], the MIC S. aureus Newman against S. aureus Newman was determined as 0.78 µg/mL (≈ 1.49 µM). Further, the MIC S. suis in the assay with S. suis was found to be 3.13 µg/mL (≈ 5.98 µM). The MIC P. multocida in the assay with P. multocida was > 50 µg/mL. The molecule further returned an MIC M. marinum with M. marinum of 6.25 µg/mL (≈ 11.9 µM). Besides, the MIC E. coli JW5503 against E. coli JW5503 was > 50 µg/mL. For the same molecule, in the assay with E. faecium Van A, the MIC E. faecium Van A was determined as 3.13 µg/mL (≈ 5.98 µM). Moreover, in the assay on HEK293 (HEK293, 50 mg/mL stock), the “IC50 HEK293 (50 mg/mL stock)” value is on record as 4.7. In addition, the “IC50 NRK-52E (50 mg/mL stock)” value in the assay with NRK-52E (50 mg/mL stock) was 4.568.
Turning to `Oc1ccc(-c2n[nH]c(C(F)(F)F)c2-c2ccc(Cl)cc2)c(O)c1` [May-14, 4-[4-(4-chlorophenyl)-5-(trifluoromethyl)-1∼{H}-pyrazol-3-yl]resorcinol], the MIC S. aureus Newman in the assay on S. aureus Newman amounted to 3.13 µg/mL (≈ 8.82 µM). The molecule further had an MIC S. suis against S. suis of 12.5 µg/mL (≈ 35.2 µM). For the same molecule, the MIC P. multocida against P. multocida was found to be 25 µg/mL (≈ 70.5 µM). Moreover, the MIC M. marinum in the assay on M. marinum was > 50 µg/mL. In the assay with E. coli JW5503, this molecule returned an MIC E. coli JW5503 of 3.13 µg/mL (≈ 8.82 µM). In addition, the MIC E. faecium Van A in the assay with E. faecium Van A came out at 12.5 µg/mL (≈ 35.2 µM). Further, the IC50 was 10.6 µg/mL (≈ 29.9 µM) in the assay on HEK293 (setting [2]) and 3.04 µg/mL (≈ 8.57 µM) with NRK-52E.
Turning to `CCOc1cc(O)c(-c2n[nH]c(C(F)(F)F)c2-c2ccccc2)cc1CC` [Sep-2, 5-ethoxy-4-ethyl-2-[4-phenyl-5-(trifluoromethyl)-1∼{H}-pyrazol-3-yl]phenol], in the assay with S. aureus Newman, the MIC S. aureus Newman is 6.25 µg/mL (≈ 16.6 µM). This molecule also registered an MIC S. suis in the assay with S. suis of 25 µg/mL (≈ 66.4 µM). For the same molecule, in the assay on P. multocida, the MIC P. multocida was > 50 µg/mL. Moreover, the MIC M. marinum in the assay with M. marinum is > 50 µg/mL. In the assay with E. coli JW5503, this molecule showed an MIC E. coli JW5503 of 25 µg/mL (≈ 66.4 µM). Further, the MIC E. faecium Van A against E. faecium Van A amounted to 25 µg/mL (≈ 66.4 µM). Also, the IC50 with HEK293 (setting [1]) was 3.97 µg/mL (≈ 10.5 µM); in the assay with NRK-52E, ~17.4 µg/mL (≈ 46.2 µM).
Take `O=[N+]([O-])c1ccc(COc2ccc(-c3n[nH]c(C(F)(F)F)c3-c3ccc(Br)cc3)c(O)c2)cc1` [May-11, 2-[4-(4-bromophenyl)-5-(trifluoromethyl)-1∼{H}-pyrazol-3-yl]-5-(4-nitrobenzyl)oxyphenol]: the MIC S. aureus Newman against S. aureus Newman was 1.56 µg/mL (≈ 2.92 µM). Moreover, the MIC S. suis in the assay with S. suis is 3.13 µg/mL (≈ 5.86 µM). The MIC P. multocida with P. multocida was > 50 µg/mL. The molecule also registered an MIC M. marinum against M. marinum of 12.5 µg/mL (≈ 23.4 µM). In the assay on E. coli JW5503, the MIC E. coli JW5503 is > 50 µg/mL. In addition, the MIC E. faecium Van A with E. faecium Van A was 1.56 µg/mL (≈ 2.92 µM). The IC50 in the assay on HEK293 (setting [2]) was 6.2 µg/mL (≈ 11.6 µM); in the assay with NRK-52E, ~3.91 µg/mL (≈ 7.32 µM).
